The record followed here is US20260325464A1, “COMPOSITIONS FOR MODULATING THE EXPRESSION OF AQUAPORINS IN NEURODEGENERATIVE DISORDERS” (priority 2023, published 2026).

Holding throughout (type): in vivo, rat
Test [1] deals with substantia nigra. Nature of the test: Brain histopathology of substantia nigra, reserpine Parkinson's model. The text has this: The brain histopathology was done for all the experimental groups. The brain tissue was fixed in 10% buffered neutral formalin solution. The tissue was embedded in paraffin, sectioned at […] stained with hematoxylin and eosin (H&E). The sections were examined under light microscope to study the architecture of the brain tissue, and then photomicrographs were taken (Fischer A H, Jacobson K A, Rose J, Zeller R. Hematoxylin and eosin staining of tissue and cell sections. CSH Protoc. 2008:1;pdb.prot4986. doi: 10.1101/pdb.prot4986).
The induction of Parkinson's disease and measurement of other parameters were done as per the reported protocol (Santos et al., Cognitive, motor and tyrosine hydroxylase temporal impairment in a model of parkinsonism induced by reserpine. Behav Brain Res. 2013; 253:68-77 and Shishehbore et al. A novel kinetic spectrophotometric method for the determination of dopamine in biological and pharmaceutical samples. J Chem. 2013; 2013:1-6). Induction of Parkinson's disease was done by administering Resperine, which inhibits the monoamine vesicular transporters, thus decreasing the levels of monoamine neurotransmitters in the brain. Following pretreatment for 14 days with Gingerenone A, the rat groups received subcutaneous injections of reserpine (4 mg/kg) for the final five days of the treatment regimen. Resperine (5 mg) was dissolved in 1 ml of 1% acetic acid and then diluted tenfold with distilled water to achieve a final concentration of 500 μg/ml. The normal control group received saline with 1% acetic acid for 14 days, administered from day 10 to day 14. Thirty minutes following the administration of reserpine on the 14th day, behavioural assessments were conducted using the Open Field test, Y Maze, and Catalepsy tests to evaluate changes. […] Upon completion of the study, brains were harvested for biochemical analyses and histopathological studies. The experimental group is depicted in table 10.

Test [2] deals with Alzheimer's disease. Nature of the test: Morris water maze (MWM) test in rats with AlCl3-induced Alzheimer's disease. The settings on record: for Escape Latency Time: p.o. + AlCl3 (100 mg/kg, i.p.), MWM at 17th day, Mean ± SEM, n = 6. The protocol:
Morris water maze (MWM)—This test was performed as per protocol established by Ishola et al., Protective role of Spondiasmombin leaf and Cola acuminata seed extracts against scopolamine-induced cognitive dysfunction. Alexandria J Med. 2018; 54(1):27-39. MWM is a round water tank “diameter: 110 cm and height: 60 cm” consisting of a white surface and that is filled using opaque water (Temp. 26±2° C.) to a distance (depth) of 30 cm. The MWM tank circle is divided into 4 equal quadrants [North Quadrant 1, East Quadrant 2, West Quadrant 3, and South Quadrant 4]. Further, it consists of a 10 cm diameter platform in a constant position. Index of memory improvement is measured by the Escape Latency Time (ELT)—which is the time the animal takes to find the platform.
The MWM plays an important role in the testing of learning and memory in rodent models of Alzheimer's Disease. It is used to test hippocampal-dependent learning, including acquisition of spatial memory and long-term spatial memory (Bromley-Brits et al., Morris water maze test for learning and memory deficits in Alzheimer's disease model mice, J Vis Exp., 2011 Jul. 20:(53):2920). In this study, learning was impaired in the Alzheimer's group.

For test [3], the system named is Aquaporin-4 (AQP4). Description: AQP4 expression in brain homogenate (ELISA), AlCl3 Alzheimer's model. The settings on record: 5, 10 and 20 mg/kg, FIG. 1. From the text: Aquaporin-4 (AQP4) is a channel protein that plays a fundamental role in glymphatic system, a pathway for fluid exchange in the central nervous system, as well as a central figure in the pathophysiology of neurodegenerative diseases such as Alzheimer's disease (AD) and frontotemporal dementia. It plays an important role in maintaining cerebral fluid homeostasis by acting as a water channel protein. The AQP4 not only enables water permeability through the blood-brain barrier and also regulates water exchange between perivascular spaces and the rest of the glymphatic system (Szczygielski et al., Cerebral Microcirculation, Perivascular Unit, and Glymphatic System: Role of Aquaporin-4 as the Gatekeeper for Water Homeostasis, Front. Neurol. 12:767470, doi: 10.3389/fneur.2021.767470). Further, Astrocytes are known to maintain extracellular potassium concentrations in the brain by a process termed “potassium siphoning”. Changes in potassium channel function alters brain homeostasis leading to brain impairment. Water movement via the AQP4 water channel localized to astrocyte end-feet maintains osmotic balance and promotes effective potassium siphoning (Verkman A S, Aquaporins in Clinical Medicine, Annu. Rev. Med. 2012. 63:303-16). […] In the present study, the levels were determined using ELISA kit (Biogenuix Medsystems Pvt. Ltd.).
A general note: In an ELISA, binding on a coated surface is turned into a signal by an enzyme label.

Test [4] has as its system Tau. Description: Tau level in plasma (ELISA), AlCl3 Alzheimer's model. The settings on record: 5, 10 and 20 mg/kg, FIG. 2. From the text:
The levels of Tau, β-amyloid (1-42) and Apolipoprotein E were estimated. using ELISA kit (Krishgen Biosystems, India). All the protein biomarkers of AD were elevated in the AD control group.

Test [5] deals with Aquaporin 9 (AQP9). Nature of the test: AQP9 expression, reserpine Parkinson's model. The settings on record: 5, 10 and 20 mg/kg, FIG. 9. The text has this: The induction of Parkinson's disease and measurement of other parameters were done as per the reported protocol (Santos et al., Cognitive, motor and tyrosine hydroxylase temporal impairment in a model of parkinsonism induced by reserpine. Behav Brain Res. 2013; 253:68-77 and Shishehbore et al. A novel kinetic spectrophotometric method for the determination of dopamine in biological and pharmaceutical samples. J Chem. 2013; 2013:1-6). Induction of Parkinson's disease was done by administering Resperine, which inhibits the monoamine vesicular transporters, thus decreasing the levels of monoamine neurotransmitters in the brain. Following pretreatment for 14 days with Gingerenone A, the rat groups received subcutaneous injections of reserpine (4 mg/kg) for the final five days of the treatment regimen. Resperine (5 mg) was dissolved in 1 ml of 1% acetic acid and then diluted tenfold with distilled water to achieve a final concentration of 500 μg/ml. The normal control group received saline with 1% acetic acid for 14 days, administered from day 10 to day 14. Thirty minutes following the administration of reserpine on the 14th day, behavioural assessments were conducted using the Open Field test, Y Maze, and Catalepsy tests to evaluate changes. Rats administered with Carbidopa, a known drug for the management of Parkinson's disease was also used for comparison. […]

With `COc1cc(CC/C=C/C(=O)CCc2ccc(O)c(OC)c2)ccc1O` [Gingerenone A], the “histopathology of substantia nigra” value in test [1] (5 mg/kg, FIG. 12) was “both normal [FIG. 12A—Arrow] and degenerative neuronal cells having dark nucleus with mild basophilic cytoplasm [FIG. 12B—Arrow] and focal reactive microgliosis. Scant inflammation was noted at places. The neuropils had focal vacuoles”; in test [1] (10 mg/kg, FIG. 13) it was “both normal [FIG. 13A—Arrow] and degenerative neuronal cells having variable darkly stained nucleus [FIG. 13B—Arrow] with mild basophilic cytoplasm and scant inflammation”; in test [1] (20 mg/kg, FIG. 14), “both normal [FIG. 14A—Arrow] and degenerative neuronal cells having variable darkly stained nucleus [14B—Arrow] with mild basophilic cytoplasm and scant inflammation”. Also, the “Escape Latency Time” value in test [2] (5 mg/kg) was 34.47 ± 3.87 s; in test [2] (10 mg/kg), 27.73 ± 2.18 s; in test [2] (20 mg/kg), 27.82 ± 2.63 s. Further, the “learning and memory in MWM (in words)” value in test [2] (AlCl3 model, Table 4) was “significantly improved learning and memory”. The “AQP4 expression (in words)” value in test [3] is recorded as “increased AQP4 expression”. For the same compound, in test [4], the “Tau levels in plasma (in words)” value is listed as “significantly reduced”. Also, the “AQP9 expression (in words)” value in test [5] is on record as “inhibited AQP9 expression”.
